Measurements reported in ChEMBL document CHEMBL4507310, “Data for DCP probe A-1211212” (2021).

What was measured:
[1] = molecular target: Sodium-dependent serotonin transporter (Homo sapiens) (UniProt P31645); assay: 5-HT transporter (h) Eurofins-Cerep binding assay; parameters: ligand concentration 2 nM; conditions: filed as antagonist, Compound concentration 10.0 uM
[2] = molecular target: Non-receptor tyrosine-protein kinase TYK2 (Homo sapiens) (UniProt P29597); conditions: Compound concentration 1000.0 nM
[3] = molecular target: Receptor tyrosine-protein kinase erbB-2 (Homo sapiens) (UniProt P04626); conditions: Compound concentration 1000.0 nM
[4] = molecular target: L-type Ca2+ channel (diltiazem site, benzothiazepines) (Rattus norvegicus, UniProt P22002+P27732+Q02485); assay: Ca2+ channel (L, diltiazem site) (benzothiazepines) Eurofins-Cerep binding assay; type: protein assay; parameters: incubation time 120 min, incubation temperature RT, ligand concentration 15 nM; conditions: rat cerebral cortex, probe [3H]diltiazem (15 nM), compound concentration 10 uM, read-out: % Inhibition of Control Specific Binding (Mean n=2)
[5] = molecular target: Inhibitor of nuclear factor kappa-B kinase subunit alpha (Homo sapiens) (UniProt O15111); conditions: Compound concentration 1000.0 nM
[6] = molecular target: Serine/threonine-protein kinase Nek3 (Homo sapiens) (UniProt P51956); conditions: Compound concentration 1000.0 nM
[7] = molecular target: Calcium-dependent protein kinase 1 (Plasmodium falciparum) (UniProt P62344); conditions: Compound concentration 1000.0 nM
[8] = molecular target: Peroxisome proliferator-activated receptor gamma (Homo sapiens) (UniProt P37231); assay: PPARgamma (h) Eurofins-Cerep binding assay; parameters: ligand concentration 5 nM; conditions: filed as agonist, Compound concentration 10.0 uM
[9] = molecular target: Vascular endothelial growth factor receptor 2 (Homo sapiens) (UniProt P35968); conditions: Compound concentration 1000.0 nM
Chain of Vascular endothelial growth factor receptor 2 (Homo sapiens) (P35968 whole entry): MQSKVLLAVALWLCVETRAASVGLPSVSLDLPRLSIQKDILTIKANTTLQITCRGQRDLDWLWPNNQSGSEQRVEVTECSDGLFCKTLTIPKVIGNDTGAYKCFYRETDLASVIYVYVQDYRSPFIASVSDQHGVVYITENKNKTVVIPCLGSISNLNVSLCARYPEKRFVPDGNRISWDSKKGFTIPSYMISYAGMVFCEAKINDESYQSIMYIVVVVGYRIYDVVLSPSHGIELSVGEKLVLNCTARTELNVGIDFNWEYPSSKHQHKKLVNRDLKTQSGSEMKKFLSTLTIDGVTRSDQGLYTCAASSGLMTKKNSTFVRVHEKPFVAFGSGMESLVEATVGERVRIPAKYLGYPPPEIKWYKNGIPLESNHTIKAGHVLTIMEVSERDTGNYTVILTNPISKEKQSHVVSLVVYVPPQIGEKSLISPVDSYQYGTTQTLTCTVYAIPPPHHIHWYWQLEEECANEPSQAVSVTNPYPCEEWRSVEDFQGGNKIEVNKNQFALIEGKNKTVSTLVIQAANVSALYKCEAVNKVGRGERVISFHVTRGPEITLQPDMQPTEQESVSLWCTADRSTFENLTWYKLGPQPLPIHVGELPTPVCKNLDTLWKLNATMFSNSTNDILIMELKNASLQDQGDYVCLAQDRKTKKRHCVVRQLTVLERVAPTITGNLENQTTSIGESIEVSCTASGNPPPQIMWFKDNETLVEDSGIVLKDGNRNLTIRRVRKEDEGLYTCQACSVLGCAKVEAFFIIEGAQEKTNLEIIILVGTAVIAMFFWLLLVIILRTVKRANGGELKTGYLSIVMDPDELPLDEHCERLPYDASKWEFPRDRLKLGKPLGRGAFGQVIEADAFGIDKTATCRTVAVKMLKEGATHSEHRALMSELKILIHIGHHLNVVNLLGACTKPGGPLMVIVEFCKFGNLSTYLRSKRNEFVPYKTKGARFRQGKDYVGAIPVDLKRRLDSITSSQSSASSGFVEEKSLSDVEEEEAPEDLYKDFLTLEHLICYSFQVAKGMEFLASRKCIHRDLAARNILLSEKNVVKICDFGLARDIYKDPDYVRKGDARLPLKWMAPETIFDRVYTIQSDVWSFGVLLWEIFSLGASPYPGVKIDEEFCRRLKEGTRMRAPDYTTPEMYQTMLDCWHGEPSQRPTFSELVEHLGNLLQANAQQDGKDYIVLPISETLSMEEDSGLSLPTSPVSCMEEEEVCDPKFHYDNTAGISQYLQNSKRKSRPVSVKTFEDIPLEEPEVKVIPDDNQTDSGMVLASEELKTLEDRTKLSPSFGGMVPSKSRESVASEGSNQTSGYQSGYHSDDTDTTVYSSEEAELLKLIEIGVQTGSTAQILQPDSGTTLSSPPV

[10] = molecular target: Serine/threonine-protein kinase ULK3 (Homo sapiens) (UniProt Q6PHR2); conditions: Compound concentration 1000.0 nM
[11] = molecular target: Myosin light chain kinase (Homo sapiens) (UniProt Q32MK0); conditions: Compound concentration 1000.0 nM
[12] = molecular target: Cyclin-dependent kinase 2 (Homo sapiens) (UniProt P24941); conditions: Compound concentration 1000.0 nM
[13] = molecular target: T1, Muscarinic acetylcholine receptor M1 (Homo sapiens) (UniProt P11229); assay: M1 (h) Eurofins-Cerep binding assay; parameters: ligand concentration 2 nM; conditions: filed as antagonist, Compound concentration 10.0 uM
T1 sequence (whole entry): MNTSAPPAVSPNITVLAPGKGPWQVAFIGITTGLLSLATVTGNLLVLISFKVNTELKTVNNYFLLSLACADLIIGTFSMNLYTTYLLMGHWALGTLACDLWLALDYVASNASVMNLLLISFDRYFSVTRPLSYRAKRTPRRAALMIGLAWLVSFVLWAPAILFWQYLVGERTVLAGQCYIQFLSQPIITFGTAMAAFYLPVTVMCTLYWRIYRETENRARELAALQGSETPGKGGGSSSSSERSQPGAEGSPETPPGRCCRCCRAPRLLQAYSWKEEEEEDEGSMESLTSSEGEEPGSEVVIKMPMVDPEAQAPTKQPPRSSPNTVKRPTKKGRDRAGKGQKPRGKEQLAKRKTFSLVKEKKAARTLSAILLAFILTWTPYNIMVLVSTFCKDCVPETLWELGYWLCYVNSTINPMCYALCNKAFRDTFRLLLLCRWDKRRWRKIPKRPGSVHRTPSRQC

[14] = molecular target: Serine/threonine-protein kinase TAO3 (Homo sapiens) (UniProt Q9H2K8); conditions: Compound concentration 1000.0 nM
[15] = molecular target: Mitogen-activated protein kinase kinase kinase 9 (Homo sapiens) (UniProt P80192); conditions: Compound concentration 1000.0 nM
[16] = molecular target: Serine/threonine-protein kinase BRSK1 (Homo sapiens) (UniProt Q8TDC3); conditions: Compound concentration 1000.0 nM
[17] = molecular target: NUAK family SNF1-like kinase 2 (Homo sapiens) (UniProt Q9H093); conditions: Compound concentration 1000.0 nM
[18] = molecular target: Ephrin type-A receptor 1 (Homo sapiens) (UniProt P21709); conditions: Compound concentration 1000.0 nM
[19] = molecular target: Serine/threonine-protein kinase LATS1 (Homo sapiens) (UniProt O95835); conditions: Compound concentration 1000.0 nM
Chain of Serine/threonine-protein kinase LATS1 (Homo sapiens) (O95835 whole entry): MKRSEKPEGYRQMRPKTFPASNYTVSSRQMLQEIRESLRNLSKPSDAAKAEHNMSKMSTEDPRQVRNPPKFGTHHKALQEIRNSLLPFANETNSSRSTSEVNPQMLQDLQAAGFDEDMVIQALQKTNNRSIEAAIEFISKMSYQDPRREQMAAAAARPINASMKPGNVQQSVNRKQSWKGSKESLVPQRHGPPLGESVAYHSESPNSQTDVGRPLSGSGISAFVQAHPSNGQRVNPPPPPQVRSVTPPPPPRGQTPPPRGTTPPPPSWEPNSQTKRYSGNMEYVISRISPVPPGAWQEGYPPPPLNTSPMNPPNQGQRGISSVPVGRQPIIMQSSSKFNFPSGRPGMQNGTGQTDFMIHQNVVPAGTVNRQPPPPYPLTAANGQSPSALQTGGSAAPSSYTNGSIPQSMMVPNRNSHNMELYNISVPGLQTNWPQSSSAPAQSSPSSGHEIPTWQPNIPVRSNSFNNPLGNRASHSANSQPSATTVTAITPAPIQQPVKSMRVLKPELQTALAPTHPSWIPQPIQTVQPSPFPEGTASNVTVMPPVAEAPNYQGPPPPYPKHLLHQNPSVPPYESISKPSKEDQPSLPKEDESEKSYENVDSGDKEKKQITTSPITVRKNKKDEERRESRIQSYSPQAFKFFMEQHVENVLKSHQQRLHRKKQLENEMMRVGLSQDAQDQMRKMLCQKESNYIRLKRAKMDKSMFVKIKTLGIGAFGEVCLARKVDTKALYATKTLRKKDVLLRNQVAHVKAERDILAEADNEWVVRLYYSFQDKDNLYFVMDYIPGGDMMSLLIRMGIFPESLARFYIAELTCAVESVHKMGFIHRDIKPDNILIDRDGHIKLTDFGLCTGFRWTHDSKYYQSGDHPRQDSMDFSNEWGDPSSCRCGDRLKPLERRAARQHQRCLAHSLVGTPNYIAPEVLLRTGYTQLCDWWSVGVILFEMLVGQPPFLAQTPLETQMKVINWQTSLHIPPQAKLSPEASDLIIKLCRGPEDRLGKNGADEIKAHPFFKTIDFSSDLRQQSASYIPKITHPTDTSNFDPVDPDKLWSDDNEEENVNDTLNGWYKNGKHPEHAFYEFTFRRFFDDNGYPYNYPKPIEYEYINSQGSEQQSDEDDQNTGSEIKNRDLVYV

[20] = molecular target: Mitogen-activated protein kinase 13 (Homo sapiens) (UniProt O15264); conditions: Compound concentration 1000.0 nM
[21] = system: Proto-oncogene tyrosine-protein kinase receptor Ret (Homo sapiens), P07949 [V804M]; conditions: Compound concentration 1000.0 nM
Chain of Proto-oncogene tyrosine-protein kinase receptor Ret (Homo sapiens), P07949 [V804M] (P07949 whole entry V804M): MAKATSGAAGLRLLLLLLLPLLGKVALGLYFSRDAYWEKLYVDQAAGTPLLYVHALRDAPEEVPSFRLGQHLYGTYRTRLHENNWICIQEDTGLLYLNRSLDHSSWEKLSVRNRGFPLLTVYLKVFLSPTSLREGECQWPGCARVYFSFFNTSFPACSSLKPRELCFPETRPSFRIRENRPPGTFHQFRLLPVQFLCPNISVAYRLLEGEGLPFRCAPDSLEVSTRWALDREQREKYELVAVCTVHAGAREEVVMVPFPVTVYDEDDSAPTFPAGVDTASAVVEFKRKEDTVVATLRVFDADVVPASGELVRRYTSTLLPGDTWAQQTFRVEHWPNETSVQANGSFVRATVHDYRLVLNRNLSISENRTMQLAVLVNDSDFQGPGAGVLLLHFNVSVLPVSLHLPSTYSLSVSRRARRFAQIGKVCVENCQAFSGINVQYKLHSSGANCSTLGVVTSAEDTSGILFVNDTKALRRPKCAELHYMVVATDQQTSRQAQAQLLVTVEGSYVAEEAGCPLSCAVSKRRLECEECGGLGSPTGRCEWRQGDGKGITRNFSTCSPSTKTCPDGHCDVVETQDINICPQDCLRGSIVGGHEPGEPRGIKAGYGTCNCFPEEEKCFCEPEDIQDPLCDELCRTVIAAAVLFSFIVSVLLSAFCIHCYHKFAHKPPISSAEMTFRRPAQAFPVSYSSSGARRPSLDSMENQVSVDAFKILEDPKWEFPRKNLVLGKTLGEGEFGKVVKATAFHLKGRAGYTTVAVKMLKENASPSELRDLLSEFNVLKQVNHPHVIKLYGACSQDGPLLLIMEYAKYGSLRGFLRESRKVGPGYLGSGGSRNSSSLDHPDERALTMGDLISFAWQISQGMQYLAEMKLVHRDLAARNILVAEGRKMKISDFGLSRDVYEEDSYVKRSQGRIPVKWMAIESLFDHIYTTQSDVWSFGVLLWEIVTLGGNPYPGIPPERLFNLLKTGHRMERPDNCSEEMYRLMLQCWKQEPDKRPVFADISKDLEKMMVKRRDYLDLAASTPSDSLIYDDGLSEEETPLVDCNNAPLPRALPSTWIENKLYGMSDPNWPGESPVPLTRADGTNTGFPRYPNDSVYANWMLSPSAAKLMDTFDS

[22] = molecular target: Protein kinase C iota type (Homo sapiens) (UniProt P41743); conditions: Compound concentration 1000.0 nM
[23] = molecular target: Transient receptor potential cation channel subfamily M member 6 (Homo sapiens) (UniProt Q9BX84); conditions: Compound concentration 1000.0 nM
[24] = molecular target: 5-hydroxytryptamine receptor 2A (Homo sapiens) (UniProt P28223); assay: 5-HT2A (h) Eurofins-Cerep binding assay; parameters: ligand concentration 0.5 nM; conditions: filed as antagonist, Compound concentration 10.0 uM
Chain of 5-hydroxytryptamine receptor 2A (Homo sapiens) (P28223 whole entry): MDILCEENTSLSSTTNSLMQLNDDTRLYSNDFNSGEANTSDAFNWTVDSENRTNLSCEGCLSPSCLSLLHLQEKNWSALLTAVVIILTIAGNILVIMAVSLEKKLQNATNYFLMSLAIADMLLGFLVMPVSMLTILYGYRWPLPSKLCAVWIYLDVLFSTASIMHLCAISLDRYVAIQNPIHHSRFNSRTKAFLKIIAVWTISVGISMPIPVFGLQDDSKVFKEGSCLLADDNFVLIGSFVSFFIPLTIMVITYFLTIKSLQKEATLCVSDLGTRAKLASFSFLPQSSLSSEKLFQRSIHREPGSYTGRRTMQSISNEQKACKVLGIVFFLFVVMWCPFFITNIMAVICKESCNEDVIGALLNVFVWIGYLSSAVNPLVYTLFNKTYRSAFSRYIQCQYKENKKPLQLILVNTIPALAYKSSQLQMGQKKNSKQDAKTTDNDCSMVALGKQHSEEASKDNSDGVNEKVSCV

[25] = molecular target: Serine/threonine-protein kinase 3 (Homo sapiens) (UniProt Q13188); conditions: Compound concentration 1000.0 nM
[26] = molecular target: T2, 5-hydroxytryptamine receptor 1A (Homo sapiens) (UniProt P08908); assay: 5-HT1A (h) Eurofins-Cerep binding assay; parameters: ligand concentration 0.5 nM; conditions: filed as agonist, Compound concentration 10.0 uM
T2 sequence (whole entry): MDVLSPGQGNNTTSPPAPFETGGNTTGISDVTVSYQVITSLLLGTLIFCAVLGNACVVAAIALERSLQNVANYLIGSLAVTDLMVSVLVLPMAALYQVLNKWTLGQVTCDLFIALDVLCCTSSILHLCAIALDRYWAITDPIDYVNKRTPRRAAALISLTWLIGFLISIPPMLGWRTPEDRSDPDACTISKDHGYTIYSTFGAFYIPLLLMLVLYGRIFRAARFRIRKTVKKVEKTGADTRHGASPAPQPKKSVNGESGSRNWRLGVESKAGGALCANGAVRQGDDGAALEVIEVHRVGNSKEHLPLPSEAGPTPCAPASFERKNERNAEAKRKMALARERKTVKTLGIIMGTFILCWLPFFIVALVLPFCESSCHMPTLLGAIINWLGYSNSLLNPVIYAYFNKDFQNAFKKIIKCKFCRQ

[27] = molecular target: 5-hydroxytryptamine receptor 1B (Homo sapiens) (UniProt P28222); assay: 5-HT1B(h) Eurofins-Cerep binding assay; parameters: ligand concentration 1 nM; conditions: filed as antagonist, Compound concentration 10.0 uM
[28] = molecular target: Muscarinic acetylcholine receptor M3 (Homo sapiens) (UniProt P20309); assay: M3 (h) Eurofins-Cerep binding assay; parameters: ligand concentration 0.2 nM; conditions: filed as antagonist, Compound concentration 10.0 uM
[29] = molecular target: Serine/threonine-protein kinase TAO1 (Homo sapiens) (UniProt Q7L7X3); conditions: Compound concentration 1000.0 nM
Chain of Serine/threonine-protein kinase TAO1 (Homo sapiens) (Q7L7X3 whole entry): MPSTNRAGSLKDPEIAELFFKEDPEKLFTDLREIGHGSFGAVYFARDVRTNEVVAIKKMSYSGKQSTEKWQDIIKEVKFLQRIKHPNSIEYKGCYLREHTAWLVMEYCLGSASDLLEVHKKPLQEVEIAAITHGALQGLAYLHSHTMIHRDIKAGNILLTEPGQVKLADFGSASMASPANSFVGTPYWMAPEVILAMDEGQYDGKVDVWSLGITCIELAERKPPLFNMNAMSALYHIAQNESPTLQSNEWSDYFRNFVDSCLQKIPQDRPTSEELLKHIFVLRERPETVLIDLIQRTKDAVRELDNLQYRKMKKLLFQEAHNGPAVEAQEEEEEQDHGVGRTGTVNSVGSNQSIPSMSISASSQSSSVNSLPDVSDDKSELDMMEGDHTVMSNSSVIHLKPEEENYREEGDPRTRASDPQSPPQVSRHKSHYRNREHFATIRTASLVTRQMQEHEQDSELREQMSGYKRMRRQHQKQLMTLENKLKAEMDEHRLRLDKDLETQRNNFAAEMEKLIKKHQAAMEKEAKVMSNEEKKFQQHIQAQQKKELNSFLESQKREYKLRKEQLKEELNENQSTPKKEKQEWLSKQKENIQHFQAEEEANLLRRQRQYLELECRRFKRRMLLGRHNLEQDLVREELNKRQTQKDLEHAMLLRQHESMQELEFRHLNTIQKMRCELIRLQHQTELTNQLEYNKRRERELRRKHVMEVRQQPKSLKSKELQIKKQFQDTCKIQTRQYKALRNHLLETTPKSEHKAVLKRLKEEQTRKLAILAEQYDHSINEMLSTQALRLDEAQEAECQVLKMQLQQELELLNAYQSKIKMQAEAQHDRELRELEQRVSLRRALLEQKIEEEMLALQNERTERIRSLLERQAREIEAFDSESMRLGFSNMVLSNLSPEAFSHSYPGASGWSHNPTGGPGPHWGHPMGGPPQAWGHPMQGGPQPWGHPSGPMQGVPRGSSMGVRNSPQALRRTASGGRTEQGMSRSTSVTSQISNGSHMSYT

[30] = molecular target: Serine/threonine-protein kinase 17A (Homo sapiens) (UniProt Q9UEE5); conditions: Compound concentration 1000.0 nM
[31] = molecular target: Serine/threonine-protein kinase 32B (Homo sapiens) (UniProt Q9NY57); conditions: Compound concentration 1000.0 nM
[32] = molecular target: Cyclin-dependent kinase 4 (Homo sapiens) (UniProt P11802); conditions: Compound concentration 1000.0 nM

O=C(NS(=O)(=O)c1ccc(NCC2CCOCC2)c([N+](=O)[O-])c1)c1ccc(N2CCN(Cc3ccc(C(F)(F)F)cc3-c3ccc(Cl)cc3)CC2)cc1Oc1cnc2[nH]ccc2c1 [A-1210227]
% Inhibition of Control Specific Binding (Mean n=2) [1]: 0.4%
residual activity [2]: 84%
residual activity [3]: 100%
inhibition at 120 min, 10 µM [4]: -124%
residual activity [5]: 81%
residual activity [6]: 85%
residual activity [7]: 82%
% Inhibition of Control Specific Binding (Mean n=2) [8]: 9.3%
residual activity [9]: 100%
residual activity [10]: 85%
residual activity [11]: 100%
residual activity [12]: 100%
% Inhibition of Control Specific Binding (Mean n=2) [13]: -0.2%
residual activity [14]: 86%
residual activity [15]: 100%
residual activity [16]: 100%
residual activity [17]: 88%
residual activity [18]: 98%
residual activity [19]: 100%
residual activity [20]: 99%
residual activity [21]: 100%
residual activity [22]: 100%
residual activity [23]: 89%
% Inhibition of Control Specific Binding (Mean n=2) [24]: -0.1%
residual activity [25]: 100%
% Inhibition of Control Specific Binding (Mean n=2) [26]: -3.4%
% Inhibition of Control Specific Binding (Mean n=2) [27]: -4.9%
% Inhibition of Control Specific Binding (Mean n=2) [28]: 8.9%
residual activity [29]: 87%
residual activity [30]: 100%
residual activity [31]: 100%
residual activity [32]: 100%

CO[C@H]1CC[C@H](CNc2ccc(S(=O)(=O)NC(=O)c3ccc(N4CCN(CC5=C(c6ccc(Cl)cc6)CC(C)(C)CC5)CC4)cc3Oc3cnc4[nH]ccc4c3)cc2[N+](=O)[O-])CC1 [A-1211212]
% Inhibition of Control Specific Binding (Mean n=2) [1]: -2.2%
residual activity [2]: 98%
residual activity [3]: 54%
inhibition at 120 min, 10 µM [4]: -6.2%
residual activity [5]: 100%
residual activity [6]: 66%
residual activity [7]: 80%
% Inhibition of Control Specific Binding (Mean n=2) [8]: 28.5%
residual activity [9]: 100%
residual activity [10]: 80%
residual activity [11]: 100%
residual activity [12]: 100%
% Inhibition of Control Specific Binding (Mean n=2) [13]: -7.2%
residual activity [14]: 87%
residual activity [15]: 84%
residual activity [16]: 100%
residual activity [17]: 95%
residual activity [18]: 100%
residual activity [19]: 87%
residual activity [20]: 96%
residual activity [21]: 93%
residual activity [22]: 79%
residual activity [23]: 87%
% Inhibition of Control Specific Binding (Mean n=2) [24]: -5%
residual activity [25]: 85%
% Inhibition of Control Specific Binding (Mean n=2) [26]: -2.7%
% Inhibition of Control Specific Binding (Mean n=2) [27]: -1%
% Inhibition of Control Specific Binding (Mean n=2) [28]: 10.3%
residual activity [29]: 88%
residual activity [30]: 88%
residual activity [31]: 100%
residual activity [32]: 100%
